From PubChem BioAssay AID743405 (Broad Institute, 2014)
Active and inactive are the calls of the source.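 How the source made its calls: active means signal drops with AC50 under 10 µM, fitted no higher than twice the top valid tested dose; inactive means effect in the opposite direction, plus the rest.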

Test system: not listed separately
Assay: toxicity toward NIH3T3 fibroblasts – cell-based, plate reader, dry powder, cytotoxicity control, dose response (AID 743405)
Details: NIH3T3 viability, CellTiter-Glo ATP luminescence, 48 h; at 35 µM (top of the series)
In the case of COc1ccc(-n2ncc3c(N4CCCCC4)ncnc32)cc1, the activity change, negative = cytotoxicity is reported as -2.9% (inactive). For O=C(CN1C(=O)c2ccccc2S1(=O)=O)c1ccc2c(c1)OCCCO2, the activity change, negative = cytotoxicity was 8.65% (inactive). In the case of O=C1S/C(=C\c2ccc(N3CCOCC3)o2)C(=O)N1Cc1c(F)cccc1Cl, the activity change, negative = cytotoxicity is reported as 92.2% (inactive). For CCN(CC)Cc1c(O)ccc2c1O/C(=C\C=C\c1ccccc1)C2=O, the activity change, negative = cytotoxicity was 9.2% (inactive). For COc1ccc(CNC(=O)C(c2ccc(C)cc2)N(Cc2cccs2)C(=O)c2ccc3c(c2)OCCO3)cc1 (stereo not drawn), the activity change, negative = cytotoxicity was -4.92% (inactive). For Cc1ccc(CNC(=O)CSc2c3c(nc4ccc(Cl)cc24)CCCC3)o1, the activity change, negative = cytotoxicity was 11.2% (inactive). With CCOC(=O)Cn1c(S(=O)(=O)Cc2ccccc2Cl)nc(-c2ccccc2)c1-c1ccccc1 the activity change, negative = cytotoxicity was 3.41% (inactive). In the case of CCSc1nnc(NC(=O)c2nc(S(=O)(=O)Cc3ccc(F)cc3)ncc2Cl)s1, the activity change, negative = cytotoxicity is reported as 45.4% (inactive). With O=C(O)c1cccc(COc2ccccc2Cl)c1 the activity change, negative = cytotoxicity was -3.99% (inactive). With O=C(NCCc1ccccc1)c1ccc2c(c1)OCCCO2 the activity change, negative = cytotoxicity was 4.4% (inactive). For Cc1ccc(C(=O)Nc2cnc3ccccc3c2)cc1, the activity change, negative = cytotoxicity was -0.872% (inactive). For O=C(NCCc1ccccc1)c1ccc2c(c1)OCCO2, the activity change, negative = cytotoxicity was 5.21% (inactive). For O=C(CN1C(=O)c2ccccc2S1(=O)=O)c1ccc(Cl)cc1Cl, the activity change, negative = cytotoxicity was 5.03% (inactive). For O=C(c1n[nH]c(=O)c2ccccc12)N1CCN(C2c3ccccc3-c3ccccc32)CC1, the activity change, negative = cytotoxicity was 8.43% (inactive). In the case of COc1ccc(CNC(=O)C(C)n2ccc3cc(S(=O)(=O)N4CCCCCC4)ccc32)cc1 (stereo not drawn), the activity change, negative = cytotoxicity is reported as -0.861% (inactive). For Cc1cc(S(=O)(=O)NCc2ccncc2)c(C)cc1Br, the activity change, negative = cytotoxicity was -1.39% (inactive). In the case of Cc1nc(SCC(=O)Nc2nc3ccccc3s2)c(C#N)c(C)c1C, the activity change, negative = cytotoxicity is reported as -9.06% (inactive). For Cc1cc(C(=O)COC(=O)c2ccccc2O)c(C)n1Cc1cccs1, the activity change, negative = cytotoxicity was -7.18% (inactive).

Test system: NIH3T3 viability, CellTiter-Glo ATP luminescence, 48 h
Assay: as above
Details: not given
In the case of Cc1c(C)c2ccc(OCC(=O)Nc3ccccn3)c(C)c2oc1=O, the AC50 is reported as 36.4 µM. With COc1c(CC=C(C)C)cc(C2CC(=O)c3c(O)cc(O)cc3O2)cc1CC=C(C)C (stereo not drawn) the AC50 was 32.9 µM. With Cc1cccc(CSc2cccc3cccnc23)c1 the AC50 was > 70 µM (inactive). With Cc1ccc(-c2cn3cc(C)ccc3n2)cc1 the AC50 was > 70 µM (inactive). In the case of COc1ccc(OCc2cccc(C(=O)O)c2)cc1, the AC50 is reported as > 70 µM (inactive).
